Results published in patent publication EP0180850A2, “Antimycotic azolyl-methyl-cyclopropyl-carbinol derivatives” (BAYER AG, priority 1984, dated 1986).

Legend:
[1] = test system: Dermatophyten, Schimmelpilze, Hefen; experiment: Antimycotic in-vitro activity, serial dilution test, overall comparison with prior-art compounds; format: cell-based; settings: compared in words with known compounds (A), (B) and (C)
Method: Versuchsbeschreibung: • Die in-vitro-Prüfungen wurden im Reihenverdünnungstest mit Keiminokula von durchschnittlich 5 x 10^3 bis 10^4 Keimen/ml Substrat durchgeführt. Als Nährmedium dienten • a) für Dermatophyten und Schimmelpilze: Sabourand's milieu d'epreuve • b) für Hefen: • Fleischextrakt-Traubenzucker-Bouillon.
Die Bebrütungstemperatur betrug 28 bis 37°C, die Bebrütungsdauer lag bei 24 bis 96 Stunden bei Hefen und 96 Stunden bei Dermatophyten und Schimmelpilzen.

Candida-Zellen = experiment: Antimycotic in-vivo activity (oral) in mouse candidosis; set-up: species or system Mäuse vom Typ SPF-CF1; settings: mice infected i.v. with 1-2 x 10^6 Candida cells; oral 10 to 100 mg/kg one hour before and seven hours after infection; survival on day 6 p.i.
Method: Versuchsbeschreibung: • Mäuse vom Typ SPF-CF1 wurden intravenös mit-1-2 x 10^6 logarithmisch wachsenden Candida-Zellen, die in physiologischer Kochsalzlösung suspendiert werden, infiziert. Eine Stunde vor und sieben Stunden nach der Infektion werden die Tiere mit jeweils 10 bis 100 mg/kg Körpergewicht der Präparate oral behandelt.
Unbehandelte Tiere starben am 3. bis 6. Tag post infektionem. Die Überlebensrate am 6. Tag post infektionem betrug bei unbehandelten Kontrolltieren etwa 5 %.

Compound | antimykotische Wirkung [1] | Wirkung (Candida-Zellen)
CCCCSC1(C(O)(Cn2cncn2)c2ccc(Cl)cc2)CC1 (stereo not shown) [I-6] | bessere antimykotische Wirkung | ++++ (= gute Wirkung = 80 % Überlebende am 6. Tag p.i.)
CC[S+]([O-])C1(C(O)(Cn2cncn2)c2ccc(Cl)cc2)CC1 (stereo not shown) [I-3, 1-(4-Chlorphenyl)-1-[1-(ethylsulfinyl)-1-cyclopropyl]-2-(1,2,4-triazol-1-yl)-1-ethanol] | bessere antimykotische Wirkung | +++++ (= sehr gute Wirkung = 90 % Überlebende am 6. Tag p.i.)
OC(Cn1cncn1)(c1ccc(Cl)cc1)C1(Oc2ccccc2)CC1 (stereo not shown) [I-5] | bessere antimykotische Wirkung | +++++ (= sehr gute Wirkung = 90 % Überlebende am 6. Tag p.i.)
CCSC1(C(O)(Cn2cncn2)c2ccc(Cl)cc2)CC1 (stereo not shown) [I-1, 1-(4-Chlorphenyl)-1-[1-(ethylthio)-1-cyclopropyl]-2-(1,2,4-triazol-1-yl)-1-ethanol] | bessere antimykotische Wirkung | +++++ (= sehr gute Wirkung = 90 % Überlebende am 6. Tag p.i.)
OC(Cn1cncn1)(c1ccccc1)C1(Oc2ccc(Cl)cc2)CC1 (stereo not shown) [I-2] | bessere antimykotische Wirkung | +++++ (= sehr gute Wirkung = 90 % Überlebende am 6. Tag p.i.)
CCCCS(=O)(=O)C1(C(O)(Cn2cncn2)c2ccc(Cl)cc2)CC1 (stereo not shown) [I-7] | bessere antimykotische Wirkung | +++++ (= sehr gute Wirkung = 90 % Überlebende am 6. Tag p.i.)
OC(Cn1cncn1)(c1ccc(Cl)cc1)C1(Sc2ccc(Cl)cc2)CC1 (stereo not shown) [I-11] | bessere antimykotische Wirkung | 
OC(Cn1cncn1)(c1ccc(Cl)cc1)C1(SCc2ccc(Cl)cc2)CC1 (stereo not shown) [I-13] |  | +++++ (= sehr gute Wirkung = 90 % Überlebende am 6. Tag p.i.)
CCS(=O)(=O)C1(C(O)(Cn2cncn2)c2ccc(Cl)cc2)CC1 (stereo not shown) [I-4] | bessere antimykotische Wirkung | +++ (= Wirkung = 60 % Überlebende am 6. Tag p.i.)
